Where a name gives a salt, the structure may show the parent alone. Read-outs that look alike come from different tables or passages of the source. *1 amine or outer side, *2 acyl side, *3 side chain or, on linkers, in order; H or OH if unused. Where a SMILES comes first, the peptide text is derived from it. Bridges are numbered along the chain shown (N, C = ends). Roman numbers before positions name the chains, in order. [ ]: non-standard residue; d: D form. Actinocin(9to1) = Cc1c2oc3c(C)ccc(C(=O)[*:1])c3nc-2c(C(=O)[*:2])c(N)c1=O; NMeV = CN[C@H](C(=O)O)C(C)C; Sar = CNCC(=O)O
Columns and labels:
[1] = molecular target: full-length P. pyralis luciferase (Photinus pyralis, UniProt P08659, K549A/L550V/N119G/N50D/S548I); format: cell-based
full-length P. pyralis luciferase, sequence (P08659 whole entry N50D/N119G/S548I/K549A/L550V, looked up): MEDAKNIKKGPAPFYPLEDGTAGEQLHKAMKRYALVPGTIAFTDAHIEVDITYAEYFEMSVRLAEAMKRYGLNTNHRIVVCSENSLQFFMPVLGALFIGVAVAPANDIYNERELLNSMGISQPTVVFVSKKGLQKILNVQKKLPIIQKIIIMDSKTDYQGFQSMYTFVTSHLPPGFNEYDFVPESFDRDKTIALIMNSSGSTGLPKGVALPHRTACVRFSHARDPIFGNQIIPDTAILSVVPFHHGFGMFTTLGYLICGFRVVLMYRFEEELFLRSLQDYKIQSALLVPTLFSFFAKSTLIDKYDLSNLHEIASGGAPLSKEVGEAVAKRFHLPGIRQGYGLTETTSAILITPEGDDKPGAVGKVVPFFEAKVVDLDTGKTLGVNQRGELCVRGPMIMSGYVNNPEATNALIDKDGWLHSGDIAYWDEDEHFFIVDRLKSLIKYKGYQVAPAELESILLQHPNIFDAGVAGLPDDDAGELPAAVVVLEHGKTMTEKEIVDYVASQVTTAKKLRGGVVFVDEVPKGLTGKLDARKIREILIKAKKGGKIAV

[2] = system: Clone V cells
[3] = molecular target: T1, FGF14:Nav1.6 C-tail complex (Homo sapiens, UniProt Q92915+Q9UQD0); test: Split-luciferase complementation assay (LCA) in Clone V double stable HEK293 cells; format: cell-based
T1 construct: polymerase chain reaction (PCR) amplification of the FGF14 open reading frame (nt 1–855); C-terminal fragment of Nav1.6 (amino acids 1763–1976) fused with CD4ΔC-tail (amino acids 1–395); expressed in transfected cells
T1 sequence (Q92915 1-252 isoform Q92915-2): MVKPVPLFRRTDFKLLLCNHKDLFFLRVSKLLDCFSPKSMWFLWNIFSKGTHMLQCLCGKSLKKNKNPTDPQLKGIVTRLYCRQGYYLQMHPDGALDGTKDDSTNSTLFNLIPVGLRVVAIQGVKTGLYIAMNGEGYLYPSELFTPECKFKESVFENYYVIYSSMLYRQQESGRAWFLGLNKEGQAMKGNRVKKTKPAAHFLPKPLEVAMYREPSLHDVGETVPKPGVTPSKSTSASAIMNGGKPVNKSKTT
T1 sequence (Q9UQD0 1763-1976 limits assumed): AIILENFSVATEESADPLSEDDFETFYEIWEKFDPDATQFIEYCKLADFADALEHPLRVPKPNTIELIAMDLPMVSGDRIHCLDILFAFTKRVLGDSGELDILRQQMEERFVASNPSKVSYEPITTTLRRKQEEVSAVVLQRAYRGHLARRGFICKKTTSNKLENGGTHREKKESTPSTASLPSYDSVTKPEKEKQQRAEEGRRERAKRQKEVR

[4] = CC_NCI screening, normalized to on-plate 0.3% DMSO controls
[5] = CC_NCI screening, biological replicate Set 1, normalized to on-plate 0.3% DMSO controls
[6] = CC_NCI screening, biological replicate Set 1, normalized to on-plate 0.3% DMSO controls (n=16 per plate)
[7] = CC_NCI screening, biological replicate Set 2, normalized to on-plate 0.3% DMSO controls
[8] = CC_NCI screening, biological replicate Set 2, normalized to on-plate 0.3% DMSO controls (n=16 per plate)
[9] = average of Set 1 and Set 2, normalized to 0.3% DMSO controls
[10] = CC_NCI screening, full-length luciferase counter-screen luminescence, normalized to on-plate 0.3% DMSO controls
[11] = CC_NCI screening, full-length luciferase counter-screen, normalized to on-plate 0.3% DMSO controls
[12] = CC_NCI screening, LCA luminescence, biological replicate Set 1, normalized to on-plate 0.3% DMSO controls (n=16 per plate)
[13] = CC_NCI screening, LCA luminescence, biological replicate Set 2, normalized to on-plate 0.3% DMSO controls (n=16 per plate)
[14] = CC_NCI screening, LCA, biological replicate Set 1, normalized to on-plate 0.3% DMSO controls
[15] = CC_NCI screening, LCA, biological replicate Set 2, normalized to on-plate 0.3% DMSO controls
[16] = CC_NCI screening, average of Set 1 and Set 2, normalized to 0.3% DMSO controls

SMILES	Luciferase Assay % Lum [1, 10] [%]	Luciferase Assay Z-score [1, 11]	Split Luciferase Assay % Lum Set 1 [3, 12] [%]	Split Luciferase Assay %Lum Set 2 [3, 13] [%]	Split Luciferase Assay Z-score Set 1 [3, 14]	Split Luciferase Assay Z-score Set 2 [3, 15]	Split Luciferase Assay %Lum Avg [3, 16] [%]	Toxicity Assay % Fluor ([2]; human, 16 h, 30 µM) [%]	Toxicity Assay Z-score ([2]; human, 16 h, 30 µM)	further results
Cc1nc2sccn2c(=O)c1CCN1CCC(=C(c2ccccc2)c2ccc(F)cc2)CC1 [Compound R59022]										Luciferase Assay % Lum (full-length luciferase counter-screen) [1, 4]: 55.65%; Luciferase Assay Z-score (full-length luciferase counter-screen) [1, 4]: -5.68; Toxicity Assay % Fluor (CTB cell viability fluorescence) [2]: 113.72%; Toxicity Assay Z-score (CTB cell viability) [2]: 1.92; Split Luciferase Assay Z-score Set 1 [3, 5]: -1.91; Split Luciferase Assay % Lum Set 1 [3, 6]: 76.42%; Split Luciferase Assay Z-score Set 2 [3, 7]: -0.10; Split Luciferase Assay %Lum Set 2 [3, 8]: 98.83%; Split Luciferase Assay %Lum Avg [3, 9]: 87.63%
C[C@@H](N)[C@H]1CC[C@H](C(=O)Nc2ccncc2)CC1 [Compound Y-27632]	95.76	-0.54	76.42	74.90	-1.91	-2.04	75.66			Toxicity Assay % Fluor [2]: 96.21%; Toxicity Assay Z-score [2]: -0.53
O=P1(N(CCCl)CCCl)NCCCO1 (stereo not drawn) [Cyclophosphamide]										Luciferase Assay % Lum [1]: 101.62%; Luciferase Assay Z-score [1]: 0.21; Toxicity Assay % Fluor ([2]; human): 98.87%; Toxicity Assay Z-score ([2]; human): -0.16; Split Luciferase Assay % Lum Set 1 [3]: 107.95%; Split Luciferase Assay %Lum Avg [3]: 112.75%; Split Luciferase Assay %Lum Set 2 [3]: 117.56%; Split Luciferase Assay Z-score Set 1 [3]: 0.64; Split Luciferase Assay Z-score Set 2 [3]: 1.43
Cc1nc(Nc2ncc(C(=O)Nc3c(C)cccc3Cl)s2)cc(N2CCN(CCO)CC2)n1 [DASATINIB]	82.88	-2.19	38.37	65.54	-4.98	-2.80	51.96	83.83	-2.26	
COc1cc2c(cc1OC)[C@@H]1C(=O)c3ccc4c(c3O[C@@H]1CO2)C=CC(C)(C)O4 [DEGUELIN]	66.30	-4.32	27.50	26.01	-5.86	-6.02	26.76			Toxicity Assay % Fluor ([2]; human): 100.58%; Toxicity Assay Z-score ([2]; human): 0.08
Cc1nc2c(c(=O)[nH]1)CSCC2 [DR 2313]										Luciferase Assay % Lum (full-length luciferase counter-screen) [1, 4]: 93.50%; Luciferase Assay Z-score (full-length luciferase counter-screen) [1, 4]: -0.83; Toxicity Assay % Fluor (CTB cell viability fluorescence) [2]: 106.28%; Toxicity Assay Z-score (CTB cell viability) [2]: 0.88; Split Luciferase Assay Z-score Set 1 [3, 5]: -1.11; Split Luciferase Assay % Lum Set 1 [3, 6]: 86.21%; Split Luciferase Assay Z-score Set 2 [3, 7]: -0.26; Split Luciferase Assay %Lum Set 2 [3, 8]: 96.75%; Split Luciferase Assay %Lum Avg [3, 9]: 91.48%
CC(C)(C)c1nc(-c2cccc(NS(=O)(=O)c3c(F)cccc3F)c2F)c(-c2ccnc(N)n2)s1.CS(=O)(=O)O [Dabrafenib mesylate]	100.50	0.06	126.43	121.72	2.14	1.77	124.07			Toxicity Assay % Fluor [2]: 93.50%; Toxicity Assay Z-score [2]: -0.91
Cc1c2oc3c(C)ccc(C(=O)N[C@@H]4C(=O)N[C@H](C(C)C)C(=O)N5CCC[C@H]5C(=O)N(C)CC(=O)N(C)[C@@H](C(C)C)C(=O)O[C@@H]4C)c3nc-2c(C(=O)N[C@@H]2C(=O)N[C@H](C(C)C)C(=O)N3CCC[C@H]3C(=O)N(C)CC(=O)N(C)[C@@H](C(C)C)C(=O)O[C@@H]2C)c(N)c1=O [Dactinomycin] (I: T[dV]P[Sar][NMeV] / II: T[dV]P[Sar][NMeV]; ester I:1-I:C, II:1-II:C; linker I:N-II:N via Actinocin(9to1))	95.88	-0.53		65.54		-2.80	62.83			Toxicity Assay % Fluor ([2]; human): 93.25%; Toxicity Assay Z-score ([2]; human): -0.94
Cc1nc(Nc2ncc(C(=O)Nc3c(C)cccc3Cl)s2)cc(N2CCN(CCO)CC2)n1 [Dasatinib]	84.22	-2.02	92.73	79.06	-0.59	-1.70	85.90			Toxicity Assay % Fluor [2]: 94.47%; Toxicity Assay Z-score [2]: -0.77
COc1cccc2c1C(=O)c1c(O)c3c(c(O)c1C2=O)C[C@@](O)(C(C)=O)C[C@@H]3O[C@H]1C[C@H](N)[C@H](O)[C@H](C)O1 [Daunorubicin hydrochloride]	65.12	-4.47	48.16	61.38	-4.19	-3.14	54.77	81.24	-2.62	
COc1cccc2c1C(=O)c1c(O)c3c(c(O)c1C2=O)C[C@@](O)(C(=O)CO)C[C@@H]3O[C@H]1C[C@H](N)[C@H](O)[C@H](C)O1 [Doxorubicin hydrochloride]	78.74		49.25	58.26	-4.10	-3.40	53.75	94.10	-0.82	
CN(NC(=O)CC(=O)NN(C)C(=S)c1ccccc1)C(=S)c1ccccc1 [ELESCLOMOL]	99.01	-0.13	30.77	35.37	-5.60	-5.26	33.07	74.49	-3.57	
Cn1cc(C2=C(c3cn(C4CCN(Cc5ccccn5)CC4)c4ccccc34)C(=O)NC2=O)c2ccccc21 [ENZASTAURIN]	90.70	-1.19	84.03	96.75	-1.29	-0.26	90.39	95.12	-0.68	
CNC(=O)c1ccc(N2C(=S)N(c3ccc(C#N)c(C(F)(F)F)c3)C(=O)C2(C)C)cc1F [Enzalutamide]			94.90	98.83	-0.41	-0.10	96.87	90.81	-1.28	Luciferase Assay % Lum [1]: 80.08%; Luciferase Assay Z-score [1]: -2.55
COc1cccc2c1C(=O)c1c(O)c3c(c(O)c1C2=O)C[C@@](O)(C(=O)CO)C[C@@H]3O[C@H]1C[C@H](N)[C@@H](O)[C@H](C)O1 [Epirubicin hydrochloride]	76.16	-3.05	44.90	45.77	-4.45	-4.41	45.34	86.21	-1.93	
C[C@]12CC[C@@H]3c4ccc(OC(=O)N(CCCl)CCCl)cc4CC[C@H]3[C@@H]1CC[C@@H]2OP(=O)(O)O [Estramustine phosphate sodium]										Luciferase Assay % Lum [1]: 86.35%; Luciferase Assay Z-score [1]: -1.75; Toxicity Assay % Fluor ([2]; human): 92.97%; Toxicity Assay Z-score ([2]; human): -0.98; Split Luciferase Assay % Lum Set 1 [3]: 26.42%; Split Luciferase Assay %Lum Avg [3]: 32.45%; Split Luciferase Assay %Lum Set 2 [3]: 38.49%; Split Luciferase Assay Z-score Set 1 [3]: -5.95; Split Luciferase Assay Z-score Set 2 [3]: -5.00
COc1cc([C@@H]2c3cc4c(cc3[C@@H](O[C@@H]3O[C@@H]5CO[C@@H](C)O[C@H]5[C@H](O)[C@H]3O)[C@H]3COC(=O)[C@H]23)OCO4)cc(OC)c1O [Etoposide]	103.75	0.48	77.51	72.82	-1.82	-2.21	75.17	88.49	-1.61	

From PMC6858373 (Scientific Reports, 2019)
